The source of these data is US8232273B2, “Heterocyclic compounds and methods of use” (Genentech, Inc., priority 2008, dated 2012).

In assay [1] the target is T1, Bcl-xL (GST-Bcl-xL) (Homo sapiens, UniProt Q07817). The assay is described as follows: TR-FRET binding assay, competition with F-Bak for the Bcl-xL binding site. The conditions noted are these: values listed in the order of Table 1, read-out: TR-FRET assay results (Ki), Bcl-xL. The procedure: The measurement of competition of compounds of the invention with F-Bak for a Bcl-2 family protein (Bcl-xL) binding site using a Time Resolved Fluorescence Resonance Energy Transfer (TR-FRET) binding assay:
Test compounds were serially diluted in DMSO starting at 50 μM (2× starting concentration; 10% DMSO) and 10 μt transferred into a 384-well plate.
The samples are then mixed on a shaker for 1 minute then incubated for an additional 2 hours at room temperature. For each assay plate, a probe/antibody and protein/antibody/probe mixture were included as a negative and a positive control, respectively. Fluorescence was measured on the Envision (Perkin Elmer) using a 340/35 nm excitation filter and 520/525 (F-Bak) and 495/510 nm (Tb-labeled anti-his antibody) emission filters. Dissociation constants (Ki) were determined using Wang's equation (see, Wang, Z. X. An exact mathematical expression for describing competitive binding of two different ligands to a protein molecule. FEBS Lett. 1995 360:111-114). The TR-FRET assay can be performed in the presence of varying concentrations of human serum (HS) or fetal bovine serum (FBS).
In general terms: Time-resolved FRET reads energy transfer from a long-lived donor to a nearby acceptor.

For assay [2], the target named is T1, Bcl-xL (GST-Bcl-xL). The assay is described as follows: AlphaScreen Bcl-xL binding assay, competition with biotinylated Bim peptide. On the set-up: made in house. The note with it: values listed in the order of Table 1; read-out: Alphascreen results (IC50) against the Bcl-xL protein. The text has this:
The measurement of competition of compounds of the invention with Bim26-mer for a Bcl-2 family protein binding site using an Alpha Screen Bcl-xL binding assay:
The BH3 proteins AlphaScreen™ assay was used to identify active small molecules Bcl-2 family protein screen, e.g., Bcl-xL, hmMcl-1 screen.
The beads come in close proximity when the protein and the peptides interact. Donor beads contain a photosensitiser that converts oxygen to an excited form of O2 at an excitation of 680 nm. Energy is transformed from the singlet oxygen and reacts with chemiluminescers on the acceptor bead, resulting in light emission at 520-620 nm. […] With this information, the IC50 of each compound was calculated
GST-Bcl-xL, GST-hmMcl-1 and biotinylated GST proteins were prepared in-house and were stored as stock solutions at −80° C. The biotinylated-Bak, and biotinylated-Bim peptides were purchased from Auspep and were stored as 500 μM stock solutions in 100% DMSO at −80° C. […] DMSO was purchased from AnalaR.
Compounds of the invention were prepared as 10 mM stocks with 100% DMSO on the day prior to performing the assay. […] To achieve a final compound concentration of 1 μM, in a separate matrical plate, 28 μL of 100% DMSO and 2 μL of 10 mM compound was added to a well, mixed well, 2 μL of this solution was taken and added to 38 μL of 100% DMSO. 20 μL of this solution was added to the test matrical plate. Several control compounds were included in the test plates. For the control wells 15 μL 100% DMSO only was added to the appropriate wells of each plate. The compound plates were then serially diluted 2 fold using the MiniTrak. Once titrations were complete, the compound plate was immediately covered with a foil seal to prevent evaporation.
The assay and bead buffers were prepared fresh. Each titrated compound plate was assayed in duplicate. The following volumes were sufficient to run 12 Proxiplates (4 assay plates run in duplicate in each of Bclxl, hmMcl and counter assays)
Protein and Peptide Preparation; and Assay Performance • 1. The assay and bead buffers were used to prepare the acceptor and donor solutions. ALPHASCREEN™ beads are light sensitive and therefore prepared in a darkened room. 2.5 μL of beads were added per 1 mL of buffer. • 2. The volume of protein or peptide to add was calculated using the following formula:
V2=Volume of stock protein/Peptide to add to Acceptor/Donor solution • 3. The assay components were prepared as separate Acceptor and Donor Solutions. The Acceptor Solution contained Acceptor beads and target protein, while the Donor Solution contained Donor beads and biotinylated peptide.
• 4. After the solutions were prepared, they were left to incubate for 30 minutes at room temperature to allow the beads to bind to the protein and the peptide. • 5. 50 μL of Bcl-xL solution, 50 μL of hmMcl-1 solution and 50 μL of biotinylated-GST were added into separate deep wells on an assay plate. A control 50 μL Assay/Bead buffer was added separate well plates (no protein). • 6. 50 μL of Bim solution and 50 μL of Bak solution were added into separate deep well plates. • 7. Transfer 0.3 μL it of sample from the compound plate into each assay plate. • 8. Incubated for 30 mins at RT, then add 5 μL of the Donor solution. After addition of the Donor solution, tapped plates gently and sealed individually with adhesive film. • 9.
The percent inhibition was calculated using the following equation:
[formula] • x=RFU obtained after compound treatment • μ^−=RFU obtained for the negative controls (no protein controls) • μ^+=RFU obtained for the positive controls (DMSO vehicle controls)
For orientation: Bead proximity is the source of the signal in Alpha formats.

The structures appear in SMILES notation.

T1 sequence (Q07817 whole entry, species assumed): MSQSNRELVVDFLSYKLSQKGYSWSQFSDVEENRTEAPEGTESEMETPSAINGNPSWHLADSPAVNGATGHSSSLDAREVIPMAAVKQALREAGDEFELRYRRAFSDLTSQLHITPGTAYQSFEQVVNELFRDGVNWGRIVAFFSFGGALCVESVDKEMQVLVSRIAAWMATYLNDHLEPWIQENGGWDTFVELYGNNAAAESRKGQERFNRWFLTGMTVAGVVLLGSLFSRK

One may read the Ki as a dissociation constant, usually derived from enzyme kinetics or from competition with a known ligand. The IC50 is the concentration at which inhibition is half-maximal. With `CN(C)CC#Cc1ccc(OCCCc2sc(N3CCc4cccc(C(=O)Nc5nc6ccccc6s5)c4C3)nc2C(=O)O)c(Cl)c1` [Compound 119, 2-(8-(benzo[d]thiazol-2-ylcarbamoyl)-3,4-dihydroisoquinolin-2(1H)-yl)-5-(3-(2-chloro-4-(3-(dimethylamino)prop-1-ynyl)phenoxy)propyl)thiazole-4-carboxylic acid], the Ki in assay [1] was 0.04 nM. Further, the IC50 in assay [2] was found to be 0.2 nM.

Turning to `O=C(O)c1cccc(N2CCc3cccc(C(=O)Nc4nc5ccccc5s4)c3C2)n1` [Compound 120, 6-(8-(benzo[d]thiazol-2-ylcarbamoyl)-3,4-dihydroisoquinolin-2(1H)-yl)picolinic acid], the Ki in assay [1] is 150 nM. For the same compound, the IC50 in assay [2] was found to be 310 nM.

Turning to `O=C(Nc1nc2ccccc2s1)c1cccc2c1CN(c1ccc(CCCOc3ccccc3)c(C(=O)O)n1)CC2` [Compound 121, 6-(8-(benzo[d]thiazol-2-ylcarbamoyl)-3,4-dihydroisoquinolin-2(1H)-yl)-3-(3-phenoxypropyl)picolinic acid], in assay [1], the Ki was determined as 10.6 nM. Moreover, in assay [2], the IC50 is 136 nM.

As to `O=C(O)c1ccnc(N2CCc3cccc(C(=O)Nc4nc5ccccc5s4)c3C2)n1` [Compound 122, 2-(8-(benzo[d]thiazol-2-ylcarbamoyl)-3,4-dihydroisoquinolin-2(1H)-yl)pyrimidine-4-carboxylic acid], the IC50 in assay [2] came out at 7500 nM.

With `O=C(Nc1nc2ccccc2s1)c1cccc2c1CN(c1ncc(Cl)c(C(=O)O)n1)CC2` [Compound 123, 2-(8-(benzo[d]thiazol-2-ylcarbamoyl)-3,4-dihydroisoquinolin-2(1H)-yl)-5-chloropyrimidine-4-carboxylic acid], the half-maximal inhibitory concentration (IC50) in assay [2] is 4000 nM.

For `O=C(O)c1coc(N2CCc3cccc(C(=O)Nc4nc5ccccc5s4)c3C2)n1` [Compound 124, 2-(8-(benzo[d]thiazol-2-ylcarbamoyl)-3,4-dihydroisoquinolin-2(1H)-yl)oxazole-4-carboxylic acid], in assay [2], the IC50 is 865 nM.

As to `O=C(Nc1nc2ccccc2s1)c1cccc2c1CN(c1ccc(-c3ccccc3)c(C(=O)O)n1)CC2` [Compound 125, 6-(8-(benzo[d]thiazol-2-ylcarbamoyl)-3,4-dihydroisoquinolin-2(1H)-yl)-3-phenylpicolinic acid], the Ki in assay [1] stood at 66.2 nM. In assay [2], the IC50 is 124 nM.

Take `Cc1ccccc1-c1ccc(N2CCc3cccc(C(=O)Nc4nc5ccccc5s4)c3C2)nc1C(=O)O` [Compound 126, 6-(8-(benzo[d]thiazol-2-ylcarbamoyl)-3,4-dihydroisoquinolin-2(1H)-yl)-3-o-tolylpicolinic acid]: the Ki in assay [1] was determined as 197 nM. Further, the IC50 in assay [2] was 77.6 nM.

As to `O=C(CSc1ccccc1)Nc1ccc(N2CCc3cccc(C(=O)Nc4nc5ccccc5s4)c3C2)nc1C(=O)O` [Compound 128, 6-(8-(benzo[d]thiazol-2-ylcarbamoyl)-3,4-dihydroisoquinolin-2(1H)-yl)-3-(2-(phenylthio)acetamido)picolinic acid], in assay [2], the IC50 is 340 nM.

For `O=C(Nc1nc2ccccc2s1)c1cccc2c1CN(c1ccc(/C=C/c3ccccc3)c(C(=O)O)n1)CC2` [Compound 135, (E)-6-(8-(benzo[d]thiazol-2-ylcarbamoyl)-3,4-dihydroisoquinolin-2(1H)-yl)-3-styrylpicolinic acid], in assay [2], the IC50 was 92.4 nM.

Regarding `COc1ccc(COc2ccc(N3CCc4cccc(C(=O)Nc5nc6ccccc6s5)c4C3)nc2C(=O)O)cc1` [Compound 136, 6-(8-(benzo[d]thiazol-2-ylcarbamoyl)-3,4-dihydroisoquinolin-2(1H)-yl)-3-(4-methoxybenzyloxy)picolinic acid], the IC50 in assay [2] was 19000 nM.

Consider `O=C(Nc1nc2ccccc2s1)c1cccc2c1CN(c1ccc(CCCc3ccccc3)c(C(=O)O)n1)CC2` [Compound 137, 6-(8-(benzo[d]thiazol-2-ylcarbamoyl)-3,4-dihydroisoquinolin-2(1H)-yl)-3-(3-phenylpropyl)picolinic acid], for which the IC50 in assay [2] amounted to 30 nM.

As for `O=C(Nc1nc2ccccc2s1)c1cccc2c1CN(c1ccc(/C=C/Cc3ccccc3)c(C(=O)O)n1)CC2` [Compound 138, (E)-6-(8-(benzo[d]thiazol-2-ylcarbamoyl)-3,4-dihydroisoquinolin-2(1H)-yl)-3-(3-phenylprop-1-enyl)picolinic acid], the IC50 in assay [2] was 3 nM.

Take `O=C(Nc1nc2ccccc2s1)c1cccc2c1CN(c1ccc(CCCO)c(C(=O)O)n1)CC2` [Example 99, 6-[8-(Benzothiazol-2-ylcarbamoyl)-3,4-dihydro-1H-isoquinolin-2-yl]-3-(3-hydroxy-propyl)-pyridine-2-carboxylic acid]: in assay [1], the Ki was 125 nM.

Take `CN1CCN(c2ccc(OCCCc3ccc(N4CCc5cccc(C(=O)Nc6nc7ccccc7s6)c5C4)nc3C(=O)O)c(F)c2)CC1` [Example 101, 6-(8-(benzo[d]thiazol-2-ylcarbamoyl)-3,4-dihydroisoquinolin-2(1H)-yl)-3-(3-(2-fluoro-4-(4-methylpiperazin-1-yl)phenoxy)propyl)picolinic acid]: in assay [1], the Ki turned out to be 0.7 nM.

As for `O=C(Nc1nc2ccccc2s1)c1cccc2c1CN(c1ccc(CCCOc3ccc(OCCN4CCCC4)cc3)c(C(=O)O)n1)CC2` [Example 106, 6-(8-(benzo[d]thiazol-2-ylcarbamoyl)-3,4-dihydroisoquinolin-2(1H)-yl)-3-(3-(4-(2-(pyrrolidin-1-yl)ethoxy)phenoxy)propyl)picolinic acid], the IC50 in assay [2] amounted to 1.1 nM.

Consider `CN(C)CCCc1ccc(OCCCc2sc(N3CCc4cccc(C(=O)Nc5nc6ccccc6s5)c4C3)nc2C(=O)O)cc1` [Example 107, 2-(8-(benzo[d]thiazol-2-ylcarbamoyl)-3,4-dihydroisoquinolin-2(1H)-yl)-5-(3-(4-(3-(dimethylamino)propyl)phenoxy)propyl)thiazole-4-carboxylic acid], for which the Ki in assay [1] amounted to 0.15 nM.

For `O=C(Nc1nc2ccccc2s1)c1cccc2c1CN(c1nc(C(=O)O)c(C#Cc3ccc4cc(OCCCN5CCOCC5)ccc4c3)s1)CC2` [Example 110, 2-(8-(benzo[d]thiazol-2-ylcarbamoyl)-3,4-dihydroisoquinolin-2(1H)-yl)-5-((6-(3-morpholinopropoxy)naphthalen-2-yl)ethynyl)thiazole-4-carboxylic acid], in assay [1], the Ki was determined as 0.07 nM.

Take `O=C(Nc1nc2ccccc2s1)c1cccc2c1CN(c1nc(C(=O)O)c(CCc3ccc4cc(OCCCN5CCOCC5)ccc4c3)s1)CC2` [Example 111, 2-(8-(benzo[d]thiazol-2-ylcarbamoyl)-3,4-dihydroisoquinolin-2(1H)-yl)-5-(2-(6-(3-morpholinopropoxy)naphthalen-2-yl)ethyl)thiazole-4-carboxylic acid]: the Ki in assay [1] turned out to be 0.02 nM.

Take `O=C(Nc1nc2ccccc2s1)c1cccc2c1CN(c1nc(C(=O)O)c(CCCOc3cc(F)c(NCCN4CCOCC4)cc3F)s1)CC2` [Example 115, 2-(8-(benzo[d]thiazol-2-ylcarbamoyl)-3,4-dihydroisoquinolin-2(1H)-yl)-5-(3-(2,5-difluoro-4-(2-morpholinoethylamino)phenoxy)propyl)thiazole-4-carboxylic acid]: the Ki in assay [1] worked out at 0.05 nM.
